# Source: patent US20250215029A1 (Recludix Pharma, Inc., priority 2022, published 2025)
# Read-outs that look alike come from different tables or passages of the source.
# Assays:
# [1] = target: T1, Recombinant STAT3 protein (STAT3 (G127-I722)) (Homo sapiens, UniProt P40763); assay: STAT3 Fluorescence Polarization (FP) Assay; assay type: binding; settings: probe 5-FAM-GpYLPQTV-NH2 2 nM, 45-minute incubation
# T1 construct: Recombinant STAT3 protein (STAT3 (G127-I722))
# Outline: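 Displacement of a fluorescent phosphotyrosine peptide (5-FAM-GpYLPQTV-NH2, 2 nM) from 25 nM recombinant STAT3 G127-I722 was monitored by FP after 45 min at room temperature.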
# [2] = target: T2, Recombinant STAT6 protein (STAT6 (W123-T658)) (Homo sapiens, UniProt P42226); assay: STAT6 Fluorescence Polarization (FP) Assay; assay type: binding; settings: probe 5-FAM-Ap[…]-NH2 2 nM, 45-minute incubation
# T2 construct: Recombinant STAT6 protein (STAT6 (W123-T658))
# T2 sequence (P42226 123-658): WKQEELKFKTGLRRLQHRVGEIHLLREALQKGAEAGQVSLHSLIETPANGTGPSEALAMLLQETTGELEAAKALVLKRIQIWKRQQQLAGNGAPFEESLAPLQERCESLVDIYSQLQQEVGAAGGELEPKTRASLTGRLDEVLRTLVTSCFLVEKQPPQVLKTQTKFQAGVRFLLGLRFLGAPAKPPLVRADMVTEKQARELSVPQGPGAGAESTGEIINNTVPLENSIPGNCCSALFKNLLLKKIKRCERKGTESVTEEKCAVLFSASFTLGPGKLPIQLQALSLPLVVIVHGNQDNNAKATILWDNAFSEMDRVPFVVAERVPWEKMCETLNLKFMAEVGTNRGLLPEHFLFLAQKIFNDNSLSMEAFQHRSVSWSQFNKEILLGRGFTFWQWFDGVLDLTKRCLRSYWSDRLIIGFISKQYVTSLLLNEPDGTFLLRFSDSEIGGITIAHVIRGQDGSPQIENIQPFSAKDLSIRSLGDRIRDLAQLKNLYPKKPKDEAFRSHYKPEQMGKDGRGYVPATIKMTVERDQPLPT
# Outline: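 Competitive FP binding: recombinant STAT6 (W123-T658) at 250 nM, labeled phosphotyrosine peptide at 2 nM, compounds at 1% DMSO, 45 min at RT before reading. IC50 values were obtained from nonlinear regression of mP versus log concentration.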
# [3] = STAT3 (G127-I722) 25 nM, read-out: STAT3 (FP assay IC50 class)
# [4] = STAT6 (W123-T658) 250 nM, read-out: STAT6 (FP assay IC50 class)
# [5] = STAT3 25 nM, read-out: STAT3 (FP assay IC50)
# [6] = STAT6 250 nM, read-out: STAT6 (FP assay IC50)
# T1 sequence (P40763 127-722): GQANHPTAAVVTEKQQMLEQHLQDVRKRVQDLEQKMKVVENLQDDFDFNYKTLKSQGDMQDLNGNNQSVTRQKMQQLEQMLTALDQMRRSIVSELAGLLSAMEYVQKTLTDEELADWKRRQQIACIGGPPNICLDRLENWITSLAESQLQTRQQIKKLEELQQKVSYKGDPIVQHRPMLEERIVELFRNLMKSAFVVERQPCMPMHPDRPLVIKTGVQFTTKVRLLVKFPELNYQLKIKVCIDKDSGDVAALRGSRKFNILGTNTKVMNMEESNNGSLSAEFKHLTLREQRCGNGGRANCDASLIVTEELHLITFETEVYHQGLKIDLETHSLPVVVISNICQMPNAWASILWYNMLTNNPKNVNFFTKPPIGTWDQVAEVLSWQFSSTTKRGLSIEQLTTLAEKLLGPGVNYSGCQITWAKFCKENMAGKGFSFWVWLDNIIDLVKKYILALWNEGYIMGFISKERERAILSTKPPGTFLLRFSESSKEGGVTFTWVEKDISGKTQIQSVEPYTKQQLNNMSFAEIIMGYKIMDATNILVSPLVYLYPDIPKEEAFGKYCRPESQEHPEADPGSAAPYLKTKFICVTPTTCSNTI
"IC50 [1, 3] [µM]","IC50 [2, 4] [µM]","IC50 [1, 5] [µM]","IC50 [2, 6] [µM]",Compound
1 to 10,0.3 to 3,–,–,"N#C[C@@H]1CN(C(=O)[C@@H]2CC[C@@H]3CCC[C@H](NC(=O)c4cc5cc(C(F)P(=O)(O)O)ccc5s4)C(=O)N32)C[C@H]1c1ccccc1 (single isomer, unassigned) [Compound 232]"
1 to 10,≤ 0.3,–,–,"N#C[C@H]1CN(C(=O)[C@@H]2CCC[C@@H]3CCCC[C@H](NC(=O)c4cc5cc(C(F)P(=O)(O)O)ccc5s4)C(=O)N32)C[C@@H]1c1ccccc1 (relative stereo) [Compound 552, ((2-(((4S,7S,11aS)-4-((rel-trans)-3-cyano-4-phenylpyrrolidine-1-carbonyl)-6-oxodecahydro-2H-pyrido[1,2-a]azocin-7-yl)carbamoyl)benzo[b]thiophen-5-yl)fluoromethyl)phosphonic acid]"
1 to 10,3 to 30,–,–,"CC(=O)N1C[C@H](NC(=O)[C@@H]2CC[C@@H]3CCC[C@H](NC(=O)c4cc5cc(CP(=O)(O)O)ccc5s4)C(=O)N32)[C@@H](F)C1 [Compound 219, ((2-(((3S,6S,9aS)-3-(((3S,4S)-1-acetyl-4-fluoropyrrolidin-3-yl)carbamoyl)-5-oxooctahydro-1H-pyrrolo[1,2-a]azepin-6-yl)carbamoyl)benzo[b]thiophen-5-yl)methyl)phosphonic acid]"
1 to 10,3 to 30,–,–,"O=C(N[C@H]1CCCC[C@H]2CC[C@@H](C(=O)N3CC(c4ccccc4)CC34CC4)N2C1=O)c1ccc2ccc(CP(=O)(O)O)nc2c1 (stereo partly drawn) [Compound 571, ((7-(((3S,6S,10aS)-5-oxo-3-(6-phenyl-4-azaspiro[2.4]heptane-4-carbonyl)decahydropyrrolo[1,2-a]azocin-6-yl)carbamoyl)quinolin-2-yl)methyl)phosphonic acid]"
0.1 to 1,3 to 30,–,–,"CCc1ccncc1C1CN(C(=O)[C@@H]2CC[C@@H]3CCC[C@H](NC(=O)c4ccc5sc(CP(=O)(O)O)cc5c4)C(=O)N32)C1 [Compound 576, ((5-(((3S,6S,9aS)-3-(3-(4-ethylpyridin-3-yl)azetidine-1-carbonyl)-5-oxooctahydro-1H-pyrrolo[1,2-a]azepin-6-yl)carbamoyl)benzo[b]thiophen-2-yl)methyl)phosphonic acid]"
< 0.1,3 to 30,–,–,"O=C(N[C@H]1CCC[C@H]2CC[C@@H](C(=O)N3CC(c4cncnc4N4CCOCC4)C3)N2C1=O)c1cc2cc([C@H](F)P(=O)(O)O)ccc2s1 (single isomer, unassigned) [Compound 857]"
1 to 10,0.3 to 3,–,–,"N#C[C@H]1CN(C(=O)[C@@H]2CC[C@@H]3CCCC[C@H](NC(=O)c4cc5cc(CP(=O)(O)O)ccc5s4)C(=O)N32)C[C@@H]1c1cc[nH]c(=O)c1 (single isomer, unassigned) [Compound 878]"
< 0.1,3 to 30,–,–,"O=C(N[C@@H]1C(=O)N2[C@@H](CCC[C@H]1C1CC1)CC[C@H]2C(=O)N1CC(c2cccnc2)C1)c1cc2cc(C(F)(F)P(=O)(O)O)ccc2s1 [Compound 233, ((2-(((3S,6S,7S,10aS)-7-cyclopropyl-5-oxo-3-(3-(pyridin-3-yl)azetidine-1-carbonyl)decahydropyrrolo[1,2-a]azocin-6-yl)carbamoyl)benzo[b]thiophen-5-yl)difluoromethyl)phosphonic acid]"
–,–,1 to 10,≤ 0.3,"N#C[C@@H]1CN(C(=O)[C@@H]2CC[C@@H]3C[C@@H](N4CCC4)CC[C@H](NC(=O)c4cc5cc(C(F)(F)P(=O)(O)O)ccc5s4)C(=O)N32)C[C@H]1c1ccccc1 (relative stereo) [Compound 21, ((2-(((3S,6S,9S,10aR)-9-(azetidin-1-yl)-3-(rel-(trans)-3-cyano-4-phenylpyrrolidine-1-carbonyl)-5-oxodecahydropyrrolo [1,2-a]azocin-6-yl)carbamoyl)benzo[b]thiophen-5-yl)difluoromethyl) phosphonic acid]"
1 to 10,≤ 0.3,–,–,"O=C(N[C@H]1CCC[C@H]2CC[C@@H](C(=O)N3C[C@@H](c4cccnc4)CC34CC4)N2C1=O)c1cc2cc([C@@H](F)P(=O)(O)O)ccc2s1 (single isomer, unassigned) [Compound 917]"
1 to 10,≤ 0.3,–,–,"N#C[C@@H]1[C@@H](c2ccccc2)CN(C(=O)[C@@H]2CC[C@@H]3CCC[C@H](NC(=O)c4cc5cc([C@@H](F)P(=O)(O)O)ccc5s4)C(=O)N32)C12CC2 (single isomer, unassigned) [Compound 920]"
0.1 to 1,0.3 to 3,–,–,"CC(NC(=O)[C@@H]1CC[C@@H]2CCCC[C@H](NC(=O)c3cc4cc(C(F)(F)P(=O)(O)O)ccc4s3)C(=O)N21)c1cc[nH]c(=O)c1 (stereo partly drawn) [Compound 792, (difluoro(2-(((3S,6S,10aS)-5-oxo-3-((1-(2-oxo-1,2-dihydropyridin-4-yl)ethyl)carbamoyl)decahydropyrrolo[1,2-a]azocin-6-yl)carbamoyl)benzo [b]thiophen-5-yl)methyl) phosphonic acid]"
1 to 10,3 to 30,–,–,"O=C(N[C@H]1CCCC[C@H]2CC[C@@H](C(=O)N[C@@H](CO)Cc3cccnc3)N2C1=O)c1cc2cc(C(F)(F)P(=O)(O)O)ccc2s1 [Compound 727, (difluoro(2-(((3S,6S,10aS)-3-(((R)-1-hydroxy-3-(pyridin-3-yl)propan-2-yl)carbamoyl)-5-oxodecahydropyrrolo [1,2-a]azocin-6-yl)carbamoyl)benzo [b]thiophen-5-yl)methyl) phosphonic acid]"
< 0.1,3 to 30,–,–,"CNc1c(F)cncc1C1CN(C(=O)[C@@H]2CC[C@@H]3CCC[C@H](NC(=O)c4cc5cc([C@H](F)P(=O)(O)O)ccc5s4)C(=O)N32)C1 (single isomer, unassigned) [Compound 703]"
–,–,1 to 10,≤ 0.3,"N#C[C@@H]1CN(C(=O)[C@@H]2CC[C@@H]3CCCCC[C@H](NC(=O)c4cc5cc(C(F)(F)P(=O)(O)O)ccc5s4)C(=O)N32)C[C@H]1c1ccccc1 (mixture of isomers) [Compound 74, ((2-(((3S,6S,11aS)-3-((rel- trans)-3-cyano-4-phenylpyrrolidine-1-carbonyl)-5-oxodecahydro-1H-pyrrolo[1,2-a]azonin-6-yl)carbamoyl)benzo[b]thiophen-5-yl)difluoromethyl) phosphonic acid]"
1 to 10,3 to 30,–,–,"O=C(N[C@H]1CCC[C@H]2CC[C@@H](C(=O)N3CC(c4cnccc4C4OCCO4)C3)N2C1=O)c1cc2cc(CP(=O)(O)O)ccc2s1 [Compound 546, ((2-(((3S,6S,9aS)-3-(3-(4-(1,3-dioxolan-2-yl)pyridin-3-yl)azetidine-1-carbonyl)-5-oxooctahydro-1H-pyrrolo[1,2-a]azepin-6-yl)carbamoyl)benzo[b]thiophen-5-yl)methyl)phosphonic acid]"
1 to 10,≤ 0.3,–,–,"CC[C@H]1CC[C@H](NC(=O)c2cc3cc(C(F)P(=O)(O)O)ccc3s2)C(=O)N2[C@H](CC[C@H]2C(=O)N2C[C@@H](C#N)[C@H](c3ccccc3)C2)C1 (single isomer, unassigned) [Compound 237]"
